# Laboratory results: US20070248967A1, “Reporter Assay Using Secrectory Luminescent Enzymes” (NATIONAL INSTITUTE OF ADVANCED INDUSTRIAL SCIENCE, priority 2005, published 2007)
# B1: CLuc: Cypridina noctiluca-secretory luciferase (SEQ ID NO: 2); secreted from yeast as αCLuc with α-factor signal peptide (protein, listed as Cypridina noctiluca)
# chain: MKTLILAVALVYCATVHCQDCPYEPDPPNTVPTSCEAKEGECIDSSCGTCTRDILSDGLCENKPGKTCCRMCQYVIECRVEAAGWFRTFYGKRFQFQEPGTYVLGQGTKGGDWKVSITLENLDGTKGAVLTKTRLEVAGDIIDIAQATENPITVNGGADPIIANPYTIGEVTIAVVEMPGFNITVIEFFKLIVIDILGGRSVRIAPDTANKGMISGLCGDLKMMEDTDFTSDPEQLAIQPKINQEFDGCPLYGNPDDVAYCKGLLEPYKDSCRNPINFYYYTISCAFARCMGGDERASHVLLDYRETCAAPETRGTCVLSGHTFYDTFDKARYQFQGPCKEILMAADCFWNTWDVKVSHRNVDSYTEVEKVRIRKQSTVVELIVDGKQILVGGEAVSVPYSSQNTSIYWQDGDILTTAILPEALVVKFNFKQLLVVHIRDPFDGKTCGICGNYNQDFSDDSFDAEGACDLTPNPPGCTEEQKPEAERLCNSLFAGQSDLDQKCNVCHKPDRVERCMYEYCLRGQQGFCDHAWEFKKECYIKHGDTLEVPDECK
# modifications: α-factor signal peptide
# Key:
# [1] = system: CUP1 promoter; test: CuSO4 induction experiment, reporter assay using mCLuc or β-galactosidase; assay type: cell-based, Saccharomyces cerevisiae; settings: 0.025 mM CuSO4-containing medium, pmCLuRA-CUP1 (8 hours) / pGALuRA-CUP1 (16 hours); FIGS. 13A, 13B
# Experimental: It has been known that the expression of the CUP1 gene (systematic gene name: YHR053C) of Saccharomyces cerevisiae is induced in the presence of copper ions (Gene, 48, 13-22 (1986)). That is, a CUP1 promoter is a copper-ion-inducible promoter. Thus, with the use of pmCLuRA-CUP1, it was examined whether or not such induction would be observed in the case of mCLuc. In addition, a similar experiment was carried out using β-galactosidase. The results of both experiments were compared and examined.
# Three clones of a transformant comprising pmCLuRA-CUP1 and those of a transformant comprising pGALuRA-CUP1 described above were separately introduced into a synthetic liquid medium (SD+KHLadeW 200 mM KPi). Each resultant was shake-cultured overnight at 30° C. until the stationary phase.
# Subsequently, 5 μl of the culture solution containing a transformant comprising pmCLuRA-CUP1 was introduced into each well of a 96-deep well plate, with 1 ml of a 0.025 mM CuSO4-containing synthetic liquid medium (SD+KHLadeW 200 mM KPi) or a CuSO4-free synthetic liquid medium (SD+KHLadeW 200 mM KPi) having been added to such well. This was followed by shake culture at 30° C. 8 hours after the initiation of culture, a portion of the culture solution was recovered, followed by measurement of absorbance at 600 nm (OD600) and relative light units (RLU) from a luminometer in accordance with the method in Example 1. […]
# [2] = system: CLuc; test: Influences of various chemical substances on CLuc activity measurement; assay type: biochemical, Cypridina noctiluca; settings: highly concentrated chemical substance added to culture supernatant; FIG. 6
# Excerpt: For the CLuc activity measurement, an LB960 luminometer (Berthold) was used.
# The measurement values were divided by absorbance of the culture solution at 600 nm such that CLuc activity subjected to a correction of the number of yeast cell bodies was obtained.
# Influences of chemical substances on CLuc activity measurement were examined, as such substances coexist with yeast culture supernatants upon CLuc activity measurement following the secretory expression of CLuc in yeasts.
# Chemical substances (2 μl) that had been adjusted to have different concentrations were separately added to 20 μl of the prepared culture supernatant, followed by CLuc activity measurement.
# The relative residual activity of each sample is represented by the mean value and the standard deviation on the condition that the CLuc activity of a sample to which a chemical substance was not added is determined to be 100%.
# [3] = system: CLuc; settings: final concentration in reaction solution, 100 mM Tris-HCl pH 7.4; FIG. 3
# Experimental: In addition, a stock solution of the culture supernatant of the transformant comprising pCLuRA-TDH3 was separately serial-diluted 10-fold, 100-fold, 1000-fold, and 10000-fold with an SD medium containing a 100 mM phosphate buffer solution so that the resulting diluted culture supernatants were used. Specifically, the concentration of the culture supernatant stock solution was determined to be 100% such that 10-fold, 100-fold, 1000-fold, and 10000-fold diluted culture supernatants had supernatant concentrations of 10%, 1%, 0.1%, and 0.01%, respectively.
# Then, CLuc activity measurement was carried out as with the case of Example 1.
# In FIG. 3, plots indicate results obtained by using culture supernatants that had been serial-diluted with a culture supernatant stock solution (100%) with reaction solutions with different final concentrations of luciferin.
# [4] = system: GAL1 promoter; test: Galactose induction experiment, reporter assay using mCLuc or β-galactosidase; assay type: cell-based, Saccharomyces cerevisiae; settings: 2% galactose-containing medium without glucose, 32 hours, pmCLuRA-GAL1 / pGALuRA-GAL1; FIGS. 14A, 14B
# Experimental: It has been known that the expression of GAL1 gene (systematic gene name: YBR020W) of Saccharomyces cerevisiae is induced in the absence of glucose and the presence of galactose (West, R. W. J. et al., Mol. Cell. Biol., 4: 2467-2478 (1984)). That is, a GAL1 promoter is a galactose-inducible promoter. Thus, with the use of pmCLuRA-GAL1, it was examined whether or not such induction would be observed in the case of mCLuc. In addition, a similar experiment was carried out using β-galactosidase. The results of both experiments were compared and examined.
# Three clones of a transformant comprising pmCLuRA-GAL1 and those of a transformant comprising pGALuRA-GAL1 described above were separately introduced into a synthetic liquid medium (SD+KHLadeW 200 mM KPi). […]
# Subsequently, 20 μl of the culture solution containing a transformant comprising pmCLuRA-GAL1 was introduced into each well of a 96-deep well plate, with 1 ml of a 2% galactose-containing synthetic liquid medium (SC+KHLadeW (prepared by removing glucose from SD+KHLWade in Example 1) 200 mM KPi) or a synthetic liquid medium (SD+KHLadeW 200 mM KPi) having been added to such well. […] 32 hours after the initiation of culture, a portion of the culture solution was recovered, followed by measurement of absorbance at 600 nm (OD600) and relative light units (RLU) from a luminometer in accordance with the method in Example 1. […]
# [5] = Stability of CLuc in yeast culture supernatants; assay type: physicochemical
# Experimental: The prepared culture supernatants were incubated at 0° C., 25° C., 40° C., and 50° C. for 0, 15, 30, and 60 minutes, respectively, followed by CLuc activity measurement.
# In FIG. 4, each plot indicates the mean value and the standard deviation of relative residual activities of each sample subjected to incubation at a given temperature for a given period of time. The vertical axis denotes the relative residual activity based on the CLuc activity (100%) of a sample that had not been incubated.
# [6] = Stability of CLuc activity after sampling of culture solutions; assay type: physicochemical; settings: culture solution incubated at 25° C. for 30 minutes; FIG. 8
# Experimental: Thus, in order to examine the stability of CLuc activity after sampling of culture solutions, a transformant comprising pCLuRA-TDH3 prepared in Example 1 was cultured as with the case of Example 1. Then, the yeast culture solution was partially collected (sampling), followed by incubation at 25° C. for 0, 10, 20, and 30 minutes. After incubation, the CLuc activity of each culture solution sample was measured as with the case of Example 1.
# In FIG. 8, CLuc activity is shown as the relative residual activity based on the CLuc activity of a sample that was measured immediately after sampling (100%).
molecule,measurement,setting,value
O=S(=O)([O-])[O-].[Cu+2] [CuSO4],transcription induction of the CUP1 promoter,[1],transcription induction
same,inhibition of the enzyme activity of CLuc (relative residual activity),[2],inhibited
CC[C@H](C)c1nc2c(CCCNC(=N)N)[nH]c(-c3c[nH]c4ccccc34)cn-2c1=O [Cypridina luciferin],final luciferin concentration at which CLuc activity reaches a saturation point,[3],≥ 1 µM
CCO [ethanol],inhibition of the enzyme activity of CLuc (relative residual activity),[2],inhibited
O=C[C@H](O)[C@@H](O)[C@@H](O)[C@H](O)CO [galactose],transcription induction of the GAL1 promoter,[4],transcription induction
B1,stability of CLuc as an enzyme (relative residual activity),"[5]; culture supernatant incubated at 0, 25, 40, 50° C. for 0-60 minutes, FIG. 4",highly stable
same,stability of CLuc at room temperature,"[5]; culture supernatant, room temperature, 15 minutes after sampling",stable
same,change in CLuc activity after sampling (relative residual activity),[6],almost no change
